Reference: paper PMC9964746, “Mechanism of Action and Structure–Activity Relationships of Tetracyclic Small Molecules Acting as Universal Positive Allosteric Modulators of the Cholecystokinin Receptor” (Membranes, 2023)

Experiments:
Type in all cases: cell-based
[1] = target: T1, vasopressin-2 receptor (AVP2R) (Homo sapiens, UniProt P30518); test: AVP2R cAMP HTRF accumulation assay; details: for Emax / EC50: PAM format with vasopressin, original hits: agonist and PAM data combined, average ± SD
T1 construct: expressed in transfected cells; host or cells: CHO-K1 (PAM format); HEK-293 (agonist format)
T1 sequence (P30518 whole entry): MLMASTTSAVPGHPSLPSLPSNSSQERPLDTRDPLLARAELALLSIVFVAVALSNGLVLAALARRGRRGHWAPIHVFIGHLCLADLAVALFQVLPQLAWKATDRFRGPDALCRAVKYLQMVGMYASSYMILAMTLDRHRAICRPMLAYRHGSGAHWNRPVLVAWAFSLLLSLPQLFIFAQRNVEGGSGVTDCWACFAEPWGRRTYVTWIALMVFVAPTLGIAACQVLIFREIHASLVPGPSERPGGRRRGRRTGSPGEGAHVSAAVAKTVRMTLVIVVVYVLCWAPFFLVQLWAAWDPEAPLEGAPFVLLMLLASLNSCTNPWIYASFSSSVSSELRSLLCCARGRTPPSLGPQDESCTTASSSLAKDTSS
How it was run: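 CHO-K1 AVP2R cells (PAM format) or HEK-293 AVP2R cells (agonist format) incubated 30 min at room temperature with compounds and vasopressin in HBSS with 5 mM HEPES, 0.5 mM IBMX, 0.075% BSA. cAMP read by HTRF after 30 min; 16-point 2-fold dose–response in duplicate.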

[2] = target: T2, CCK1R (Homo sapiens, UniProt P32238); test: IP-One accumulation TR-FRET assay, agonist format, HEK-293 CCK1R cells; set-up: expressed in transfected cells; host or cells: HEK-293; details: for Emax: HEK293, relative to CCK control, average ± SD, read-out: CCK1R Ago (IP-One) Emax
T2 sequence (P32238 1-428): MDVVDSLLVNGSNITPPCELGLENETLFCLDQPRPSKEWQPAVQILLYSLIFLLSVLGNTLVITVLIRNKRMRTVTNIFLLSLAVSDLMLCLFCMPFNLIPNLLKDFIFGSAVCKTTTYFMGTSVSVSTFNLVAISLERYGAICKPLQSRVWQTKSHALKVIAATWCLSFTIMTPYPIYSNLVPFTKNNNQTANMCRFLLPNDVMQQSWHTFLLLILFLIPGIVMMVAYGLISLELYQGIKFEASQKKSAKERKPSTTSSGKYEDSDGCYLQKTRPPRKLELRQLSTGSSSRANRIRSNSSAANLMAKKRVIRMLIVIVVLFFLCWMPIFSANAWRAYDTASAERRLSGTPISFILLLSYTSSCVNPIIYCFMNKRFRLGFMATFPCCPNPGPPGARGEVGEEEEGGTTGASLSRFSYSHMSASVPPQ
How it was run: (§1)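 HEK-293 cells overexpressing CCK1R were plated overnight, then given compounds (top 50 µM, 16-point 2-fold) for 30 min at 37 °C. CCK stimulator with 50 mM LiCl (PAM format) or DMSO (agonist format) followed for 1 h. IP-One was read by TR-FRET; activity score = CCK-normalized Emax × pEC50.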

[3] = target: T2, CCK1R; test: IP-One accumulation TR-FRET assay, PAM format, HEK-293 CCK1R cells; set-up: expressed in transfected cells; host or cells: HEK-293; details: for Emax: HEK293, relative to CCK control, average ± SD; for Emax / CCK1R PAM (IP-One) Score (activity score = normalized Emax × pEC50): HEK-293 CCK1R cells, PAM format; for CCK1R IP-One activity (in words): PAM and agonist formats
How it was run: as §1

| SMILES | AVP2R PAM (cAMP) Score (activity score = normalized Emax × pEC50) ([1]; CHO-K1 AVP2R cells, PAM format) | Emax ([1]; CHO-K1 AVP2R cells) [%] | CCK1R Ago (IP-One) Score (activity score = normalized Emax × pEC50) [2] | Emax [2] [%] | Emax [3] [%] | CCK1R PAM (IP-One) Score (activity score = normalized Emax × pEC50) [3] | CCK1R IP-One activity (in words) [3] | EC50 ([1]; CHO-K1 AVP2R cells) [µM] | Emax ([1]; CHO-K1, CHO-K1 AVP2R cells) [%] | AVP2R cAMP response (in words) ([1]; PAM format) |
| --- | --- | --- | --- | --- | --- | --- | --- | --- | --- | --- |
| O=C(CSc1ncnc2c1sc1nc(N3CCOCC3)c3c(c12)CCCC3)Nc1ccc(Br)cc1 [CMP-41] | 0 | 0 | 0 | 0 | 0 | 0 |  |  |  |  |
| c1ccc(CCNc2ncnc3c2sc2nc(N4CCOCC4)c4c(c23)CCCC4)cc1 [CMP-42] | 0 | 0 | 0 | 0 | 0 | 0 | None of these analogs showed any CCK1R activity |  |  |  |
| C/C(Br)=C\CSc1ncnc2c1sc1nc(N3CCOCC3)c3c(c12)CCCC3 [CMP-44] | 0 | 0 | 0 | 0 | 0 | 0 | displayed no effects |  |  |  |
| O=C(O)CSc1ncnc2c1sc1nc(N3CCOCC3)c3c(c12)CCCC3 [CMP-45] | 1.46 | 33 ± 13 | 0 | 0 | 0 | 0 | displayed no effects | 37.9 ± 7 |  |  |
| CCN(CC)c1ncnc2c1sc1nc(N3CCOCC3)c3c(c12)CCCC3 [CMP-46] | 0 | 0 | 0 | 0 | 0 | 0 | significantly diminished responses |  |  |  |
| COCCNc1ncnc2c1sc1nc(N3CCOCC3)c3c(c12)CCCC3 [CMP-47] | 0 | 0 | 0 | 0 | 0 | 0 | None of these analogs showed any CCK1R activity |  |  |  |
| CCCCNc1ncnc2c1sc1nc(N3CCOCC3)c3c(c12)CCCC3 [CMP-48] | 0 | 0 | 0 | 0 | 0 | 0 | None of these analogs showed any CCK1R activity |  |  |  |
| OCCNc1ncnc2c1sc1nc(N3CCOCC3)c3c(c12)CCCC3 [CMP-49] | 0 |  | 0 | 0 | 0 | 0 | None of these analogs showed any CCK1R activity |  | 0 |  |
| C=CCNc1ncnc2c1sc1nc(N3CCOCC3)c3c(c12)CCCC3 [CMP-50] | 0 | 0 | 0 | 0 | 0 | 0 | None of these analogs showed any CCK1R activity |  |  |  |
| NNc1ncnc2c1sc1nc(N3CCOCC3)c3c(c12)CCCC3 [CMP-51] | 0 | 0 | 0 | 0 | 0 | 0 | significantly diminished responses |  |  |  |
| CCCc1nc2oc3c(NN)ncnc3c2c2c1CCCC2 [CMP-53] | 2.95 | 61 ± 12 | 0 | 0 | 0 | 0 |  | 15.3 ± 9.8 |  |  |
| CCOC(=O)N1CCN(c2ncnc3c2oc2nc(CC(C)C)c4c(c23)CCCC4)CC1 [CMP-55] | 0 | 0 | 0 | 0 | 0 | 0 |  |  |  |  |
| CC(Sc1ncnc2c1sc1nc(N3CCOCC3)c3c(c12)CCCC3)C(=O)O (stereo not drawn) [CMP-59] | 0.93 | 20 | 0 | 0 |  |  | displayed no effects | 22.3 ± 7.2 |  |  |
| c1nc(N2CCCC2)c2sc3nc(N4CCOCC4)c4c(c3c2n1)CCCC4 [CMP-64] | 0 | 0 | 0 | 0 |  |  | significantly diminished responses |  |  |  |
| O=C(CSc1ncnc2c1sc1nc(N3CCOCC3)c3c(c12)CCCC3)NCc1ccco1 [CMP-65] | 4.78 | 96 ± 5 | 0 | 0 | 0 | 0 |  | 10 ± 1.7 |  | strong activation of AVP2R-mediated cAMP accumulation |
